Assays:
[1] = test system: J774A.1 macrophages; assay: Cholesterol depletion and estimation (Amplex Red cholesterol assay kit); type: cell-based, murine
Protocol: (§1) Cells and cell culture. A murine macrophage cell line J774A.1 (American Type Culture Collection, Rockville, Md.) was used. The cells were maintained at 37° C. in RPMI-1640 medium containing 10% heat inactivated fetal calf serum (FCS)(Biological Industries, Israel) in a CO2 incubator (5% CO2) as described previously^10. The macrophages were seeded onto tissue culture plates (60 mm) at a density of 1×10^5 cells/plate and grown for 48 hrs before use.
(§2) Cholesterol depletion and estimation. J774A.1 cells grown on culture dishes were depleted of cholesterol by incubating for 30 min with 5 or 10 mM methyl-β-cyclodextrin (Sigma) at 37° C. in serum free medium^13,23. Total cellular cholesterol was estimated using Amplex Red cholesterol assay kit^27 (Molecular Probes). Cholesterol values were normalized to protein levels estimated using BCA assay reagent kit^28 (Pierce).

[2] = test system: Leishmania donovani strain AG83; assay: Ligand binding assay of [3H]thymidine labeled promastigotes to macrophages; type: cell-based; conditions: 10 mM, J774A.1 macrophages, parasite:macrophage 10:1, assayed till 90 min
Protocol: as §1
(§3) Parasite culture. Leishmania donovani strain AG83 (MHOM/IN/1983/AG83) promastigotes were maintained at 24° C. in modified M-199 medium (Gibco/BRL) supplemented with 100 units/ml penicillin (Sigma, U.S.A.), 100 µg/ml streptomycin (Sigma, U.S.A.), and 10% heat inactivated FCS.
(§4) Cholesterol depletion and estimation. […]
(§5) Infecting macrophages with Leishmania. […] The monolayers were gently scraped to resuspend the macrophage-parasite complexes and the resulting cell suspension was analyzed either for radiolabel incorporation or macrophage-associated fluorescence. The percentage of infected macrophages was >95% after 3 hr with 5–8 amastigotes per macrophage as determined by Giemsa staining.
(§6) Labeling L. donovani AG83 promastigotes with tritium or FITC for binding studies. […] The fluorescence from the FITC-labeled parasites associated with the macrophages was analyzed with a Beckman Coulter ELITE ESP flow cytometer (Miami, Fla.) using EXPO 32 software.

[3] = test system: Leishmania donovani strain AG83; assay: Flow cytometric analysis of binding of FITC-labeled promastigotes to macrophages; type: cell-based; conditions: 10 mM, J774A.1 macrophages, parasite:macrophage 10:1, especially after 90 min
Protocol: as §1, §3, §4, §5, §6

[4] = test system: Leishmania donovani strain AG83; assay: Intracellular amastigote count in infected macrophages by Giemsa staining; type: cell-based; conditions: J774A.1 macrophages
Protocol: as §1, §3, §2
Infecting macrophages with Leishmania. Promastigotes were added onto the macrophage monolayers (both control and cholesterol-depleted) at a parasite: macrophage ratio of 10:1. The parasite-macrophage interaction was allowed to progress for 15, 30 and 90 min at 37° C. At the end of incubation, monolayers were washed with phosphate buffered saline (PBS) to remove free parasites and placed on ice to loosen adherent cells from the plates. The monolayers were gently scraped to resuspend the macrophage-parasite complexes and the resulting cell suspension was analyzed either for radiolabel incorporation or macrophage-associated fluorescence. The percentage of infected macrophages was >95% after 3 hr with 5–8 amastigotes per macrophage as determined by Giemsa staining.

For methyl-β-cyclodextrin, the “reduction of cellular cholesterol” value ([1]; 10 mM, 30 min incubation, total cellular cholesterol) was ~40%, the “total cellular cholesterol upon treatment (FIG. 1)” value ([1]; 5 or 10 mM) was “concentration-dependent reduction” and the “reduction in macrophage-parasite interaction (attachment) compared to control cells” value [2] was ~45%. For the same substance, the “fluorescence associated with cholesterol-depleted macrophages compared to control (FIG. 3)” value [3] was “pronounced reduction in fluorescence”, the “number of amastigotes present compared to control cells” value ([4]; 5 mM, multiplicity of infection 10:1, 3 hr) was “concomitant reduction in the number of amastigotes” and the “amastigotes present compared to control cells” value ([4]; 10 mM) was 50%. For the same substance, the “reduction in the number of intracellular amastigotes” value ([4]; 10 mM, multiplicity of infection 10:1, 3 hr) was ~50%.

From US7186702B2, “Method of treating leishmaniasis using methyl-beta-cyclodextrin” (priority 2002, dated 2007)
